Measurements from patent US8324272B2 (XenoPort, Inc., priority 2006, dated 2012).
Where “and” joins values, the source holds several entries; their conditions need not be identical. Identical values can stand only once.

Experiments:
[1] = Hygroscopicity of crystalline hydrochloride (9) crystallized from various solvents; type: physicochemical
Protocol: Crystallization of (1R,2R)-1-methyl-2-(2-methylpropanoyloxy)propyl (2S)-2-amino-3-(3,4-dihydroxyphenyl)propanoate hydrochloride (9) was crystallized using the solvents listed in Table 1 on an 80 mg scale.

[2] = oral administration; cited from earlier work

Which melting point does the source give for `CC(C)C(=O)O[C@H](C)[C@@H](C)OC(=O)[C@@H](N)Cc1ccc(O)c(O)c1.CS(=O)(=O)O` here?
Its melting point is 181.2 to 186 °C.

With `CS(=O)(=O)O.C[C@@H](OC(=O)c1ccccc1)[C@@H](C)OC(=O)[C@@H](N)Cc1ccc(O)c(O)c1` [Compound 11, (1R,2R)-1-Methyl-2-phenylcarbonyloxypropyl (2S)-2-Amino-3-(3,4-dihydroxyphenyl)propanoate Mesylate] as the compound, how does the melting point read?
The melting point was 94.4 °C (dec.).

What does the source list for `CC(C)C(=O)O[C@H](C)[C@@H](C)OC(=O)[C@@H](N)Cc1ccc(O)c(O)c1.Cl` [Compound 9, (1R,2R)-1-Methyl-2-(2-methylpropanoyloxy)propyl (2S)-2-Amino-3-(3,4-dihydroxyphenyl)propanoate Hydrochloride]?
Hygroscopicity ([1]; crystallized from acetonitrile): None; Hygroscopicity ([1]; crystallized from isopropanol-ethyl acetate): None; Hygroscopicity ([1]; crystallized from isopropanol-methyl tert-butyl ether): None; Hygroscopicity ([1]; crystallized from tetrahydrofuran-diisopropyl ether): None; Hygroscopicity ([1]; crystallized from tetrahydrofuran-hexane): None; Hygroscopicity ([1]; crystallized from tetrahydrofuran-methyl tert-butyl ether): None; Hygroscopicity ([1]; crystallized from water-acetonitrile): None; Hygroscopicity ([1]; crystallized from water-methyl tert-butyl ether): None; melting point: 164.7 to 166.2 °C and 164.9 to 166.4 °C

For `CC(C)(C)C(=O)Oc1ccc(C[C@H](N)C(=O)O)cc1O` [NB-355], which “duration of circulating levodopa” value [2] is on record?
The value was “prolonged”.

What about the “plasma concentrations of levodopa” value [2] of the same compound?
Its value is “low”.
